Source: ChEMBL document CHEMBL1201862, “PubChem BioAssay data set” (2004)
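96-well plates; 48 h exposure; 5 concentrations. Endpoints by linear interpolation between flanking doses. Not reached: highest tested concentration assigned. Here, GI50 denotes the concentration required for 50% inhibition of growth.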 Activity calls are given as the source filed them. No stated cut-off is given here; in the data, active = GI50 up to about 1.1 µM and inactive = higher.

Columns and labels:
Assay in all cases: NCI tumour cell line growth inhibition, 48 h
RPMI-8226 = system: RPMI-8226
786-0 = system: 786-0
UACC-257 = system: UACC-257
IGROV-1 = system: IGROV-1
SF-539 = system: SF-539
HT-29 = system: HT-29
SN12C = system: SN12C
KM12 = system: KM12
MDA-MB-231 = system: MDA-MB-231
TK-10 = system: TK-10
NCI-H460 = system: NCI-H460
OVCAR-5 = system: OVCAR-5
A549 = system: A549
UO-31 = system: UO-31
OVCAR-8 = system: OVCAR-8
NCI/ADR-RES = system: NCI/ADR-RES
HOP-62 = system: HOP-62
M14 = system: M14
HCC 2998 = system: HCC 2998
SR = system: SR
BT-549 = system: BT-549
OVCAR-3 = system: OVCAR-3
Hs-578T = system: Hs-578T
HCT-116 = system: HCT-116
MDA-N = system: MDA-N
U-251 = system: U-251
DU-145 = system: DU-145
SK-MEL-28 = system: SK-MEL-28
NCI-H23 = system: NCI-H23
HCT-15 = system: HCT-15
CCRF-CEM = system: CCRF-CEM
ACHN = system: ACHN
HOP-92 = system: HOP-92
Malme-3M = system: Malme-3M
SF-268 = system: SF-268
RXF 393 = system: RXF 393
NCI-H522 = system: NCI-H522
SK-MEL-5 = system: SK-MEL-5
SNB-75 = system: SNB-75
UACC-62 = system: UACC-62
SF-295 = system: SF-295
LOX IMVI = system: LOX IMVI
MDA-MB-435 = system: MDA-MB-435
EKVX = system: EKVX
CAKI-1 = system: CAKI-1
MCF7 = system: MCF7
A498 = system: A498
OVCAR-4 = system: OVCAR-4
MOLT-4 = system: MOLT-4
COLO 205 = system: COLO 205
PC-3 = system: PC-3
SK-OV-3 = system: SK-OV-3
K562 = system: K562
SNB-19 = system: SNB-19
NCI-H226 = system: NCI-H226
SW-620 = system: SW-620
SK-MEL-2 = system: SK-MEL-2
HL-60 = system: HL-60

For `COc1ccc(-c2cc(O)c3cc(OC)c(OC)cc3n2)cc1OC`, the GI50 (RPMI-8226) was > 100 µM (inactive), the GI50 (786-0) was > 100 µM (inactive) and the GI50 (UACC-257) was > 100 µM (inactive). For the same compound, the GI50 (IGROV-1) was > 100 µM (inactive), the GI50 (SF-539) was > 100 µM (inactive) and the GI50 (HT-29) was > 100 µM (inactive). The GI50 (SN12C) was > 100 µM (inactive), the GI50 (KM12) was > 100 µM (inactive) and the GI50 (MDA-MB-231) was > 100 µM (inactive). For the same compound, the GI50 (TK-10) was > 100 µM (inactive), the GI50 (NCI-H460) was > 100 µM (inactive) and the GI50 (OVCAR-5) was > 100 µM (inactive). The GI50 (A549) was > 100 µM (inactive), the GI50 (UO-31) was > 100 µM (inactive) and the GI50 (OVCAR-8) was > 100 µM (inactive). For the same compound, the GI50 (NCI/ADR-RES) was > 100 µM (inactive), the GI50 (HOP-62) was 37.7 µM (inactive) and the GI50 (M14) was > 100 µM (inactive). The GI50 (HCC 2998) was > 100 µM (inactive), the GI50 (SR) was > 100 µM (inactive) and the GI50 (BT-549) was > 100 µM (inactive). The GI50 (OVCAR-3) was > 100 µM (inactive), the GI50 (Hs-578T) was 69.8 µM (inactive) and the GI50 (HCT-116) was > 100 µM (inactive). For the same compound, the GI50 (MDA-N) was > 100 µM (inactive), the GI50 (U-251) was > 100 µM (inactive) and the GI50 (DU-145) was > 100 µM (inactive). The GI50 (SK-MEL-28) was > 100 µM (inactive), the GI50 (NCI-H23) was > 100 µM (inactive) and the GI50 (HCT-15) was greater than 100 µM. The GI50 (CCRF-CEM) was > 100 µM (inactive), the GI50 (ACHN) was > 100 µM (inactive) and the GI50 (HOP-92) was 64.4 µM (inactive). For the same compound, the GI50 (Malme-3M) was > 100 µM (inactive), the GI50 (SF-268) was > 100 µM (inactive) and the GI50 (RXF 393) was 67.3 µM (inactive). For the same compound, the GI50 (NCI-H522) was > 100 µM (inactive), the GI50 (SK-MEL-5) was > 100 µM (inactive) and the GI50 (SNB-75) was 37.2 µM (inactive). For the same compound, the GI50 (UACC-62) was > 100 µM (inactive), the GI50 (SF-295) was > 100 µM (inactive) and the GI50 (LOX IMVI) was > 100 µM (inactive). The GI50 (MDA-MB-435) was > 100 µM (inactive), the GI50 (EKVX) was > 100 µM (inactive) and the GI50 (CAKI-1) was > 100 µM (inactive). The GI50 (MCF7) was > 100 µM (inactive), the GI50 (A498) was > 100 µM (inactive) and the GI50 (OVCAR-4) was > 100 µM (inactive). The GI50 (MOLT-4) was > 100 µM (inactive), the GI50 (COLO 205) was > 100 µM (inactive) and the GI50 (PC-3) was > 100 µM (inactive). The GI50 (SK-OV-3) was > 100 µM (inactive), the GI50 (K562) was > 100 µM (inactive) and the GI50 (SNB-19) was > 100 µM (inactive). The GI50 (NCI-H226) was > 100 µM (inactive) and the GI50 (SW-620) was > 100 µM (inactive).

`Cc1ccc(S(=O)(=O)Nn2c(-c3ccccc3)c(C#N)c(-c3ccc([N+](=O)[O-])cc3)c(C#N)c2=O)cc1` was tested, and the GI50 (RPMI-8226) was 25.8 µM (inactive), the GI50 (786-0) was > 100 µM (inactive) and the GI50 (UACC-257) was > 100 µM (inactive). For the same compound, the GI50 (IGROV-1) was 70.8 µM (inactive), the GI50 (SF-539) was > 100 µM (inactive) and the GI50 (SK-MEL-2) was > 100 µM (inactive). For the same compound, the GI50 (HT-29) was > 100 µM (inactive), the GI50 (SN12C) was > 100 µM (inactive) and the GI50 (KM12) was > 100 µM (inactive). The GI50 (MDA-MB-231) was > 100 µM (inactive), the GI50 (TK-10) was > 100 µM (inactive) and the GI50 (NCI-H460) was > 100 µM (inactive). For the same compound, the GI50 (OVCAR-5) was > 100 µM (inactive), the GI50 (A549) was > 100 µM (inactive) and the GI50 (OVCAR-8) was > 100 µM (inactive). For the same compound, the GI50 (NCI/ADR-RES) was > 100 µM (inactive), the GI50 (HOP-62) was > 100 µM (inactive) and the GI50 (M14) was > 100 µM (inactive). For the same compound, the GI50 (HCC 2998) was > 100 µM (inactive), the GI50 (BT-549) was > 100 µM (inactive) and the GI50 (Hs-578T) was 88.7 µM (inactive). The GI50 (HCT-116) was > 100 µM (inactive), the GI50 (MDA-N) was > 100 µM (inactive) and the GI50 (U-251) was > 100 µM (inactive). The GI50 (SK-MEL-28) was > 100 µM (inactive), the GI50 (HCT-15) was greater than 100 µM and the GI50 (CCRF-CEM) was 32.1 µM (inactive). For the same compound, the GI50 (ACHN) was > 100 µM (inactive), the GI50 (HOP-92) was 30.1 µM (inactive) and the GI50 (Malme-3M) was > 100 µM (inactive). The GI50 (SF-268) was > 100 µM (inactive), the GI50 (RXF 393) was > 100 µM (inactive) and the GI50 (NCI-H522) was 13.3 µM (inactive). For the same compound, the GI50 (SK-MEL-5) was 97.1 µM (inactive), the GI50 (SNB-75) was 96.6 µM (inactive) and the GI50 (UACC-62) was > 100 µM (inactive). For the same compound, the GI50 (SF-295) was > 100 µM (inactive), the GI50 (LOX IMVI) was > 100 µM (inactive) and the GI50 (HL-60) was 39.4 µM (inactive). For the same compound, the GI50 (MDA-MB-435) was > 100 µM (inactive), the GI50 (EKVX) was > 100 µM (inactive) and the GI50 (CAKI-1) was > 100 µM (inactive). The GI50 (MCF7) was 61.2 µM (inactive), the GI50 (A498) was > 100 µM (inactive) and the GI50 (OVCAR-4) was > 100 µM (inactive). The GI50 (MOLT-4) was 45.6 µM (inactive), the GI50 (COLO 205) was > 100 µM (inactive) and the GI50 (PC-3) was > 100 µM (inactive). The GI50 (SK-OV-3) was > 100 µM (inactive), the GI50 (SNB-19) was 40.8 µM (inactive) and the GI50 (NCI-H226) was > 100 µM (inactive). The GI50 (SW-620) was > 100 µM (inactive).
